Structures can show the parent of a compound that is named as a salt. Where two headings read alike, the source gives them in different places.

Test [1] deals with T1, Human fibrinogen receptor (αIIb β3) (Homo sapiens, UniProt P05106+P08514).
T1 construct: Human fibrinogen receptor (αIIb β3) was purified from outdated platelets; from tissue; host or cells: outdated platelets (human)
The test can be described thus: Purified IIb/IIIa receptor assay (solid phase receptor assay, competition with biotinylated vitronectin). To be noted: inhibition of 50% of maximum binding of 1 nM biotinylated vitronectin; 2 h competition, room temperature, TBS+++ pH 7.4. From the text: Human fibrinogen receptor (αIIb β3) was purified from outdated platelets. (Pytela, R., Pierschbacher, […]., Suzuki, S., and […] acid adhesion receptors", Methods in Enzymology 144(1987):475-489.) Human vitronectin was purified from fresh frozen plasma as described in Yatohgo, T., Izumi, M., Kashiwagi, H., and Hayashi, M., "Novel purification of vitronectin from human plasma by heparin affinity chromatography," Cell Structure and Function 13(1988):281-292. Biotinylated human vitronectin was prepared by coupling NHS-biotin from Pierce Chemical Company (Rockford, Ill.) to purified vitronectin as previously described. (Charo, […]., Phillips, D. R., Hsu, M. A., Scarborough, R. M., "Inhibition of fibrinogen binding to GP IIb/IIIa by a GP IIIa peptide", J. Biol. Chem. 266(3) (1991): 1415-1421.) Assay buffer, OPD substrate tablets, and RIA grade BSA were obtained from Sigma (St. Louis, Mo.). Anti-biotin antibody was obtained from Calbiochem (La Jolla, Calif.). Linbro microtiter plates were obtained from Flow Labs (McLean, Va.). ADP reagent was obtained from Sigma (St. Louis, Mo.). This assay is essentially the same reported in […]., Bader, R., Byers-Ward, […]., Plow, E. F. and Ruggeri, Z. M., "Increased surface expression of the membrane glycoprotein IIb/IIIa complex induced by platelet activation: Relationships to the binding of fibrinogen and platelet aggregation", Blood 70(1987):475-483. The purified human fibrinogen receptor (αIIb β3) was diluted from stock solutions to 1.0 μg/mL in Tris-buffered saline containing 1.0 mM Ca^++, Mg^++, and Mn^++, pH 7.4 (TBS^+++). The diluted receptor was immediately transferred to Linbro microtiter plates at 100 μL/well (100 ng receptor/well). The plates were sealed and incubated overnight at 4° C. to allow the receptor to bind to the wells. All remaining steps were at room temperature. The assay plates were emptied and 200 μL of 1% RIA grade BSA in TBS^+++ (TBS^+++ /BSA) were added to block exposed plastic surfaces. Following a 2 hour incubation, the assay plates were washed with TBS^+++ using a 96 well plate washer. Logarithmic serial dilution of the test compound and controls were made starting at a stock concentration of 2 mM and using 2 nM biotinylated vitronectin in TBS^+++ /BSA as the diluent. This premixing of labeled ligand with test (or control) ligand, and subsequent transfer of 50 μL aliquots to the assay plate was carried out with a CETUS Propette robot; the final concentration of the labeled ligand was 1 nM and the highest concentration of test compound was 1.0×10^-4 M. The competition occurred for two hours after which all wells were washed with a plate washer as before. Affinity purified horseradish peroxidase labeled goat anti-biotin antibody was diluted 1:3000 in TBS^+++ /BSA and 125 μL were added to each well. After 30 minutes, the plates were washed and incubated with […]/H2 O2 substrate in 100 mM/L citrate buffer, pH 5.0. The plate was read with a microtiter plate reader at a wavelength of 450 nm and when the maximum-binding control wells reached an absorbance of about 1.0, the final A450 were recorded for analysis. The data were analyzed using a macro written for use with the EXCELTM spreadsheet program. The mean, standard deviation, and %CV were determined for duplicate concentrations. The mean A450 values were normalized to the mean of four maximum-binding controls (no competitor added) (B-MAX). The normalized values were subjected to a four parameter curve fit algorithm, [Robard et al., Int.

Test [2] addresses T2, Human vitronectin receptor (αv β3) (Homo sapiens, UniProt P05106+P06756).
T2 construct: Human vitronectin receptor(αv β3) was purified from human placenta; from tissue; host or cells: human placenta
The test can be described thus: Vitronectin adhesion assay (solid phase receptor assay, competition with biotinylated vitronectin). It counts as binding. As for the experimental part:
Human vitronectin receptor(αv β3) was purified from human placenta as previously described [Pytela et al., Methods in Enzymology, 144:475-489 (1987)]. Human vitronectin was purified from fresh frozen plasma as previously described [Yatohgo et al., Cell Structure and Function, 13:281-292 (1988)]. Biotinylated human vitronectin was prepared by coupling NHS-biotin from Pierce Chemical Company (Rockford, Ill.) to purified vitronectin as previously described [Charo et al., J. Biol. Chem., 266(3):1415-1421 (1991)]. Assay buffer, OPD substrate tablets, and RIA grade BSA were obtained from Sigma (St. Louis, Mo.). Anti-biotin antibody was obtained from Calbiochem (La Jolla, Calif.). Linbro microtiter plates were obtained from Flow Labs (McLean, Va.). ADP reagent was obtained from Sigma (St. Louis, Mo.). This assay was essentially the same as previously reported [Niiya et al., Blood, 70:475-483 (1987)]. The purified human vitronectin receptor (αv β3) was diluted from stock solutions to 1.0 μg/mL in Tris-buffered saline containing 1.0 mM Ca^++, Mg^++, and Mn^++, pH 7.4 (TBS^+++). The diluted receptor was immediately transferred to Linbro microtiter plates at 100 μL/well (100 ng receptor/well). The plates were sealed and incubated overnight at 4° C. to allow the receptor to bind to the wells. All remaining steps were at room temperature. The assay plates were emptied and 200 μL of 1% RIA grade BSA in TBS^+++ (TBS^+++ /BSA) were added to block exposed plastic surfaces. Following a 2 hour incubation, the assay plates were washed with TBS^+++ using a 96 well plate washer. Logarithmic serial dilution of the test compound and controls were made starting at a stock concentration of 2 mM and using 2 nM biotinylated vitronectin in TBS^+++ /BSA as the diluent. This premixing of labeled ligand with test (or control) ligand, and subsequent transfer of 50 μL aliquots to the assay plate was carried out with a CETUS Propette robot; the final concentration of the labeled ligand was 1 nM and the highest concentration of test compound was 1.0×10^-4 M. The competition occurred for two hours after which all wells were washed with a plate washer as before. Affinity purified horseradish peroxidase labeled goat anti-biotin antibody was diluted 1:3000 in TBS^+++ /BSA and 125 μL were added to each well. After 30 minutes, the plates were washed and incubated with OPD/H2 O2 substrate in 100 mM/L Citrate buffer, pH 5.0. The plate was read with a microtiter plate reader at a wavelength of 450 nm and when the maximum-binding control wells reached an absorbance of about 1.0, the final A450 were recorded for analysis. The data were analyzed using a macro written for use with the EXCEL™ spreadsheet program. The mean, standard deviation, and %CV were determined for duplicate concentrations. The mean A450 values were normalized to the mean of four maximum-binding controls (no competitor added) (B-MAX). The normalized values were subjected to a four parameter curve fit algorithm [Rodbard et al., Int.

Where [3] appears, read: inhibition of 50% of maximum binding of 1 nM biotinylated vitronectin, 2 h competition, room temperature, TBS+++ pH 7.4, read-out: AVB3 IC50.

As to “2-[3-[[[[3-[(aminoiminomethyl)amino]phenyl]carbonyl]amino]methyl]phenyl]cyclopropanecarboxylic acid, trifluoroacetate salt [Example 3]”, the concentration for half-maximal inhibition (IC50) in test [1] was found to be 5280 nM; in test [2] (setting [3]), 923 nM.

On to `CCOC(=O)C1CC1c1ccc(NC(=O)c2cccc(NC(=N)N)c2)cc1` (stereo not drawn) [Example 1, ethyl 2-[4-[[[3-[(aminoiminomethyl)amino]phenyl]carbonyl]amino]phenyl]cyclopropanecarboxylate, monohydrate trifluoroacetate salt], for which the IC50 was 3650 nM in test [1] and 525 nM in test [2] (setting [3]). In the case of `N=C(N)Nc1cccc(C(=O)Nc2ccc(C3CC3C(=O)O)cc2)c1` (stereo not drawn) [Example 2, 2-[4-[[[3-[(aminoiminomethyl)amino]phenyl]carbonyl]amino]phenyl]cyclopropanecarboxylic acid, trifluoroacetate salt], the IC50 in test [1] was 533 nM; in test [2] (setting [3]), 30.5 nM. The matching figures for `COc1cc(NC(=O)c2cccc(NC(=N)N)c2)ccc1C1CC1C(=O)O` (stereo not drawn) [Example 5, 2-[4-[[[3-[(aminoiminomethyl)amino]phenyl]carbonyl]amino]-2-methoxyphenyl]cyclopropanecarboxylic acid, trifluoroacetate salt]: 2890 nM and 81.1 nM. The matching figures for `N=C(N)Nc1cc(C(=O)Nc2ccc(C3CC3C(=O)O)cc2)cc(C(F)(F)F)c1` (stereo not drawn) [Example 6, 2-[4-[[[3-[(aminoiminomethyl)amino]-5-(trifluoromethyl)phenyl]carbonyl]amino]phenyl]cyclopropanecarboxylic acid, trifluoroacetate salt]: 9700 nM and 122 nM. The matching figures for `O=C(Nc1ccc(C2CC2C(=O)O)cc1)c1cccc(NC2=NCCCN2)c1` (stereo not drawn) [Example 7, 2-[4-[[[3-[(1,4,5,6-tetrahydropyrimidin-2-yl)amino]phenyl]carbonyl]amino]phenyl]cyclopropanecarboxylic acid, trifluoroacetate salt]: 4800 nM and 19 nM. Take `NC(=O)N=C(N)Nc1cccc(C(=O)Nc2ccc(C3CC3C(=O)O)cc2)c1` (stereo not drawn) [Example 8, 2-[4-[[[3-[(amino[(aminocarbonyl)imino]methyl]amino]phenyl]carbonyl]amino]phenyl]cyclopropanecarboxylic acid, trifluoroacetate salt]: the IC50 in test [1] is 13100 nM; in test [2] (setting [3]), 1380 nM. Regarding `N=C(N)NCCCCC(=O)NCC(=O)NC(CC(=O)O)c1cccnc1` (stereo not drawn) [β-[[2-[[5-[(aminoiminomethyl)amino]-1-oxopentyl]amino]-1-oxoethyl]amino]-3-pyridinepropanoic acid, reference compound], the IC50 in test [2] (positive control included on each plate, stated range, read-out: αv β3 antagonist IC50 (positive control)) is 3 to 10 nM.

A word on the IC50: it is the concentration that inhibits the measured activity by half.

These data come from US5773644A, “Cyclopropyl alkanoic acid derivatives” (G. D. Searle & Co., priority 1997, dated 1998).
